Consider seven compounds from ChEMBL document CHEMBL3044799, “Biological activity of the succinate dehydrogenase inhibitor fluopyram against Botrytis cinerea and fungal baseline sensitivity” (Pest Manag Sci, 2012).

Test [1] deals with Botrytis cinerea. The test can be described thus: Antifungal activity against Botryotinia fuckeliana inoculated in strawberry fruit. In kind it is functional, organism-based.
The subject of test [2] is Botrytis cinerea. The test can be described thus: Curative antifungal activity against Botryotinia fuckeliana inoculated in strawberry fruit assessed as disease severity measuring lesion diameter at 300 ug AI/ml applied 24 hr post-inoculation. Type of test: functional.
Test [3] deals with Botrytis cinerea. The test can be described thus: Curative antifungal activity against Botryotinia fuckeliana inoculated in strawberry fruit assessed as disease control efficacy at 300 ug AI/ml applied 48 hr post-inoculation relative to control. In kind it is functional.
Test [4] relates to Botrytis cinerea. The test can be described thus: Protective antifungal activity against Botryotinia fuckeliana inoculated in fungicide-applied strawberry fruit assessed as disease severity measuring lesion diameter at 300 ug AI/ml applied 96 hr prior-inoculation. In kind it is functional.
Test [5] concerns Botrytis cinerea. The experiment in a line: Protective antifungal activity against Botryotinia fuckeliana inoculated in fungicide-applied strawberry fruit assessed as disease control efficacy at 300 ug AI/ml applied 48 hr prior inoculation relative to control. Type of test: functional.
Test [6] relates to Botrytis cinerea. The test can be described thus: Protective antifungal activity against Botryotinia fuckeliana inoculated in fungicide-applied strawberry fruit assessed as disease severity measuring lesion diameter at 300 ug AI/ml applied 24 hr prior inoculation. In kind it is functional.
The test system of test [7] is Botrytis cinerea. The test can be described thus: Curative antifungal activity against Botryotinia fuckeliana inoculated in strawberry fruit assessed as disease control efficacy at 300 ug AI/ml applied 24 hr post-inoculation relative to control. In kind it is functional.
In test [8] the test system is Botrytis cinerea. The test can be described thus: Protective antifungal activity against Botryotinia fuckeliana inoculated in fungicide-applied strawberry fruit assessed as disease severity measuring lesion diameter at 300 ug AI/ml applied 48 hr prior inoculation. In kind it is functional.
Test [9] concerns Botrytis cinerea. The test can be described thus: Curative antifungal activity against Botryotinia fuckeliana inoculated in strawberry fruit assessed as disease severity measuring lesion diameter at 300 ug AI/ml applied 48 hr post-inoculation. Type of test: functional.
Test [10] relates to Botrytis cinerea. The test can be described thus: Protective antifungal activity against Botryotinia fuckeliana inoculated in fungicide-applied strawberry fruit assessed as disease control efficacy at 300 ug AI/ml applied 24 hr prior inoculation relative to control. Type of test: functional.
For test [11], the system named is Botrytis cinerea. The experiment in a line: Protective antifungal activity against Botryotinia fuckeliana inoculated in fungicide-applied strawberry fruit assessed as disease control efficacy at 300 ug AI/ml applied 96 hr prior-inoculation relative to control. In kind it is functional.
For test [12], the system named is Botrytis cinerea. The test can be described thus: Curative antifungal activity against Botryotinia fuckeliana inoculated in strawberry fruit assessed as disease control efficacy at 300 ug AI/ml applied 96 hr post-inoculation relative to control. Type of test: functional.
Test [13] concerns Botrytis cinerea. The experiment in a line: Curative antifungal activity against Botryotinia fuckeliana inoculated in strawberry fruit assessed as disease severity measuring lesion diameter at 300 ug AI/ml applied 96 hr post-inoculation. Type of test: functional.
For test [14], the system named is Botrytis cinerea. The test can be described thus: Curative antifungal activity against Botryotinia fuckeliana inoculated in strawberry fruit assessed as disease control efficacy at 100 ug AI/ml applied 48 hr post-inoculation relative to control. In kind it is functional.
Test [15] has as its system Botrytis cinerea. The experiment in a line: Protective antifungal activity against Botryotinia fuckeliana inoculated in fungicide-applied strawberry fruit assessed as disease severity measuring lesion diameter at 100 ug AI/ml applied 24 hr prior inoculation. In kind it is functional.
In test [16] the test system is Botrytis cinerea. The test can be described thus: Curative antifungal activity against Botryotinia fuckeliana inoculated in strawberry fruit assessed as disease severity measuring lesion diameter at 100 ug AI/ml applied 96 hr post-inoculation. Type of test: functional.
Test [17] has as its system Botrytis cinerea. The test can be described thus: Curative antifungal activity against Botryotinia fuckeliana inoculated in strawberry fruit assessed as disease severity measuring lesion diameter at 100 ug AI/ml applied 24 hr post-inoculation. In kind it is functional.
In test [18] the test system is Botrytis cinerea. The test can be described thus: Curative antifungal activity against Botryotinia fuckeliana inoculated in strawberry fruit assessed as disease severity measuring lesion diameter at 100 ug AI/ml applied 48 hr post-inoculation. In kind it is functional.
For test [19], the system named is Botrytis cinerea. The experiment in a line: Protective antifungal activity against Botryotinia fuckeliana inoculated in fungicide-applied strawberry fruit assessed as disease severity measuring lesion diameter at 100 ug AI/ml applied 48 hr prior inoculation. Type of test: functional.
Test [20] deals with Botrytis cinerea. The experiment in a line: Protective antifungal activity against Botryotinia fuckeliana inoculated in fungicide-applied strawberry fruit assessed as disease control efficacy at 100 ug AI/ml applied 48 hr prior inoculation relative to control. Type of test: functional.
Test [21] has as its system Botrytis cinerea. The test can be described thus: Curative antifungal activity against Botryotinia fuckeliana inoculated in strawberry fruit assessed as disease control efficacy at 100 ug AI/ml applied 24 hr post-inoculation relative to control. In kind it is functional.
Test [22] relates to Botrytis cinerea. The test can be described thus: Protective antifungal activity against Botryotinia fuckeliana inoculated in fungicide-applied strawberry fruit assessed as disease severity measuring lesion diameter at 100 ug AI/ml applied 96 hr prior-inoculation. In kind it is functional.
In test [23] the test system is Botrytis cinerea. The test can be described thus: Curative antifungal activity against Botryotinia fuckeliana inoculated in strawberry fruit assessed as disease control efficacy at 100 ug AI/ml applied 96 hr post-inoculation relative to control. In kind it is functional.
The subject of test [24] is Botrytis cinerea. The test can be described thus: Protective antifungal activity against Botryotinia fuckeliana inoculated in fungicide-applied strawberry fruit assessed as disease control efficacy at 100 ug AI/ml applied 24 hr prior inoculation relative to control. Type of test: functional.
Test [25] has as its system Botrytis cinerea. The test can be described thus: Protective antifungal activity against Botryotinia fuckeliana inoculated in fungicide-applied strawberry fruit assessed as disease control efficacy at 100 ug AI/ml applied 96 hr prior-inoculation relative to control. In kind it is functional.

Converted amounts (≈) assume the structure as drawn.

In the case of `O=C(Nc1ccccc1-c1ccc(Cl)cc1)c1cccnc1Cl` [BOSCALID], in the test on Botrytis cinerea [1], a half-maximal effect (EC50) was put at 0.09 µg/mL (≈ 0.262 µM). Besides, the Activity in the test on Botrytis cinerea [2] came to 4.7 mm; with Botrytis cinerea [4], 3.4 mm; in the test on Botrytis cinerea [6] it was 1.5 mm; in the test on Botrytis cinerea [8], 3 mm; in the test on Botrytis cinerea [9], 1.1 mm; in the test on Botrytis cinerea [13], 13.2 mm. In addition, the Efficacy with Botrytis cinerea [3] worked out at 94.1%; in the test with Botrytis cinerea [5], 84%; with Botrytis cinerea [7], 74.7%; with Botrytis cinerea [10], 91.7%; with Botrytis cinerea [11], 81.8%; with Botrytis cinerea [12], 29.8%.

In the case of `COC(=O)Nc1nc2ccccc2[nH]1` [CARBENDAZIM], in the test with Botrytis cinerea [1], the EC50 was 0.05 µg/mL (≈ 0.262 µM).

Take `Cc1cc(C2CC2)nc(Nc2ccccc2)n1` [CYPRODINIL]: in the test on Botrytis cinerea [1], the EC50 was 0.007 µg/mL (≈ 0.0311 µM).

In the case of `CC1(C(=O)Nc2ccc(O)c(Cl)c2Cl)CCCCC1` [FENHEXAMID], the Efficacy is given as 89.2% in the test on Botrytis cinerea [14]; 97.6% with Botrytis cinerea [20]; 61.4% in the test with Botrytis cinerea [21]; 23.2% in the test with Botrytis cinerea [23]; 99.2% in the test on Botrytis cinerea [24]; 94.4% in the test with Botrytis cinerea [25]. In addition, the Activity in the test on Botrytis cinerea [15] was determined as 0.1 mm; in the test with Botrytis cinerea [16], 14.5 mm; in the test with Botrytis cinerea [17], 7.2 mm; in the test with Botrytis cinerea [18], 2 mm; in the test with Botrytis cinerea [19] it was 0.4 mm; in the test with Botrytis cinerea [22] it was 1 mm. The compound further had an EC50 with Botrytis cinerea [1] of 0.04 µg/mL (≈ 0.132 µM).

As to `N#Cc1c[nH]cc1-c1cccc2c1OC(F)(F)O2` [FLUDIOXONIL], the EC50 in the test with Botrytis cinerea [1] turned out to be 0.003 µg/mL (≈ 0.0121 µM).

In the test on Botrytis cinerea [1], `CC(C)NC(=O)N1CC(=O)N(c2cc(Cl)cc(Cl)c2)C1=O` [IPRODIONE] displayed a concentration for a half-maximal effect (EC50) of 0.25 µg/mL (≈ 0.757 µM).

In the case of `COC(=O)N(OC)c1ccccc1COc1ccn(-c2ccc(Cl)cc2)n1` [PYRACLOSTROBIN], in the test with Botrytis cinerea [1], the EC50 was 0.01 µg/mL (≈ 0.0258 µM).

For orientation: EC50 means the concentration at which the effect is half-maximal.
